Experimental data taken from publication PMC10044120, “Potent and selective covalent inhibition of the papain-like protease from SARS-CoV-2” (Nature Communications, 2023).
Where “and” joins values, the source holds several entries; their conditions need not be identical. Equal values may be shown once. Read-outs that look alike come from different tables or passages of the source.

How the values were obtained:
[1] = system: SARS-CoV-2 Delta (B.1.617.2); assay: CPE assay, neutral red, Vero E6 cells with 2 μM CP-100356, Delta; format: cell-based; conditions: Delta (B1.617.2), Vero E6, 2 μM CP-100356
Caco-2 cells = conditions: for Percent Cytotoxicity (Neutral Red): Caco-2
SARS-CoV-2 USA-WA1/2020 [2] = assay: CPE assay, neutral red, Vero E6 cells with 2 μM CP-100356, USA-WA1/2020; format: cell-based; conditions: for Percent Cytopathic Effect (Neutral Red): USA-WA1/2020
SARS-CoV-2 USA-WA1/2020 [3] = assay: microbe, parasite or virus in culture; format: cell-based; conditions: for Virus Titer: USA-WA1/2020
[4] = system: SARS-CoV-2 Delta (B.1.617.2); assay: microbe, parasite or virus in culture; format: cell-based; conditions: Delta (B1.617.2), Caco-2
[5] = system: SARS-CoV-2 Omicron (B.1.1.529); assay: microbe, parasite or virus in culture; format: cell-based; conditions: Omicron (B1.1.529), Caco-2
Vero E6 cells [6] = conditions: for Percent Cytotoxicity (Neutral Red): Vero E6
deISGylase USP18 = conditions: cited from earlier work
Vero E6 cells [7] = conditions: African green monkey
[8] = system: SARS-CoV-2 isolate USA-WA1/2020; assay: microbe, parasite or virus in culture; conditions: Severe acute respiratory syndrome coronavirus 2, Vero C1008, read-out: cytopathic effect, % cell viability
UCH-L1 = conditions: cited from earlier work
UCH-L3 = conditions: cited from earlier work
HAUSP = conditions: cited from earlier work
[9] = system: SARS-CoV-2 isolate USA-WA1/2020; conditions: African green monkey
in vitro = conditions: African green monkey, cytotoxicity, %cell viability

## O=c1nc(NO)ccn1[C@@H]1O[C@H](CO)[C@@H](O)[C@H]1O [EIDD-1931]
[1]
  EC50: 0.31 µM
Caco-2 cells; Caco-2, Delta rows
  CC50: > 100 µM
Caco-2 cells; Caco-2, Omicron rows
  CC50: > 100 µM
Caco-2 cells; Caco-2, USA-WA1/2020 rows
  CC50: 94 µM
Caco-2 cells; SARS2-740 (Delta set), 0.1 µg/mL
  Percent Cytotoxicity (Neutral Red): 7.9%
Caco-2 cells; SARS2-740 (Delta set), 1 µg/mL
  Percent Cytotoxicity (Neutral Red): 14.7%
Caco-2 cells; SARS2-740 (Delta set), 10 µg/mL
  Percent Cytotoxicity (Neutral Red): 5.3%
Caco-2 cells; SARS2-740 (Delta set), 32 µg/mL
  Percent Cytotoxicity (Neutral Red): 15.2%
Caco-2 cells; SARS2-740 (Delta set), 100 µg/mL
  Percent Cytotoxicity (Neutral Red): 30.0%
Caco-2 cells; SARS2-740 (Omicron set), 0.1 µg/mL
  Percent Cytotoxicity (Neutral Red): 0.118%
Caco-2 cells; SARS2-740 (Omicron set), 1 µg/mL
  Percent Cytotoxicity (Neutral Red): 4.7%
Caco-2 cells; SARS2-740 (Omicron set), 10 µg/mL
  Percent Cytotoxicity (Neutral Red): 1.2%
Caco-2 cells; SARS2-740 (Omicron set), 32 µg/mL
  Percent Cytotoxicity (Neutral Red): 6.1%
Caco-2 cells; SARS2-740 (Omicron set), 100 µg/mL
  Percent Cytotoxicity (Neutral Red): 24.6%
Caco-2 cells; SARS2-740 (USA-WA1/2020 set), 0.1 µg/mL
  Percent Cytotoxicity (Neutral Red): 15.6%
Caco-2 cells; SARS2-740 (USA-WA1/2020 set), 1 µg/mL
  Percent Cytotoxicity (Neutral Red): 13.4%
Caco-2 cells; SARS2-740 (USA-WA1/2020 set), 10 µg/mL
  Percent Cytotoxicity (Neutral Red): 13.8%
Caco-2 cells; SARS2-740 (USA-WA1/2020 set), 32 µg/mL
  Percent Cytotoxicity (Neutral Red): 17.6%
Caco-2 cells; SARS2-740 (USA-WA1/2020 set), 100 µg/mL
  Percent Cytotoxicity (Neutral Red): 51.9%
SARS-CoV-2 USA-WA1/2020 [2]; USA-WA1/2020, Vero E6, 2 μM CP-100356
  EC50: 0.3 µM
SARS-CoV-2 USA-WA1/2020 [2]; 0.1 µg/mL
  Percent Cytopathic Effect (Neutral Red): 95.9%
SARS-CoV-2 USA-WA1/2020 [2]; 1 µg/mL
  Percent Cytopathic Effect (Neutral Red): 0.0%
SARS-CoV-2 USA-WA1/2020 [2]; 10 µg/mL
  Percent Cytopathic Effect (Neutral Red): 0.559%
SARS-CoV-2 USA-WA1/2020 [2]; 100 µg/mL
  Percent Cytopathic Effect (Neutral Red): 0.0%
SARS-CoV-2 USA-WA1/2020 [3]; USA-WA1/2020, Caco-2
  EC90: 0.12 µM
SARS-CoV-2 USA-WA1/2020 [3]; 0.1 µg/mL
  Virus Titer: 3.7 CCID50/mL (Log10)
SARS-CoV-2 USA-WA1/2020 [3]; 1 µg/mL
  Virus Titer: <0.7 CCID50/mL (Log10)
SARS-CoV-2 USA-WA1/2020 [3]; 10 µg/mL
  Virus Titer: <0.7 CCID50/mL (Log10)
SARS-CoV-2 USA-WA1/2020 [3]; 32 µg/mL
  Virus Titer: <0.7 CCID50/mL (Log10)
SARS-CoV-2 USA-WA1/2020 [3]; 100 µg/mL
  Virus Titer: <0.7 CCID50/mL (Log10)
[4]
  EC90: 4.9 µM
[5]
  EC90: 2.9 µM
Vero E6 cells [6]; Vero E6, 2 μM CP-100356, Delta rows
  CC50: > 100 µM
Vero E6 cells [6]; Vero E6, 2 μM CP-100356, Omicron rows
  CC50: > 100 µM
Vero E6 cells [6]; Vero E6, 2 μM CP-100356, USA-WA1/2020 rows
  CC50: > 100 µM
Vero E6 cells [6]; SARS2-733 (Delta set), 0.1 µg/mL
  Percent Cytotoxicity (Neutral Red): 2.1%
Vero E6 cells [6]; SARS2-733 (Delta set), 1 µg/mL
  Percent Cytotoxicity (Neutral Red): 5.1%
Vero E6 cells [6]; SARS2-733 (Delta set), 10 µg/mL
  Percent Cytotoxicity (Neutral Red): 36.7%
Vero E6 cells [6]; SARS2-733 (Delta set), 100 µg/mL
  Percent Cytotoxicity (Neutral Red): 48.2%
Vero E6 cells [6]; SARS2-733 (Omicron set), 0.1 µg/mL
  Percent Cytotoxicity (Neutral Red): 0.0%
Vero E6 cells [6]; SARS2-733 (Omicron set), 1 µg/mL
  Percent Cytotoxicity (Neutral Red): 0.0%
Vero E6 cells [6]; SARS2-733 (Omicron set), 10 µg/mL
  Percent Cytotoxicity (Neutral Red): 28.4%
Vero E6 cells [6]; SARS2-733 (Omicron set), 100 µg/mL
  Percent Cytotoxicity (Neutral Red): 45.6%
Vero E6 cells [6]; SARS2-735, 0.1 µg/mL
  Percent Cytotoxicity (Neutral Red): 0.0%
Vero E6 cells [6]; SARS2-735, 1 µg/mL
  Percent Cytotoxicity (Neutral Red): 0.0%
Vero E6 cells [6]; SARS2-735, 10 µg/mL
  Percent Cytotoxicity (Neutral Red): 23.0%
Vero E6 cells [6]; SARS2-735, 100 µg/mL
  Percent Cytotoxicity (Neutral Red): 38.9%

## Cc1ccc(N)cc1C(=O)N[C@H](C)c1cccc2ccccc12 [GRL0617, reference compound]
deISGylase USP18
  IC50: > 100 µM
Vero E6 cells [7]; 2.08 µM
  cytotoxicity, %cell viability: 100.64%
Vero E6 cells [7]; 8.33 µM
  cytotoxicity, %cell viability: 100.01%
Vero E6 cells [7]; 16.65 µM
  cytotoxicity, %cell viability: 87.87%
[8]
  inhibition at 2.08 µM: 15.2%
  inhibition at 8.33 µM: 7.11%
  inhibition at […]: 11.5% and 6.73% and 8.44%
UCH-L1
  IC50: > 100 µM
UCH-L3
  IC50: > 100 µM
HAUSP
  IC50: > 100 µM
[9]; 2.08 µM
  inhibition: 8.22%
[9]; 8.33 µM
  inhibition: 3.62%
In vitro
  viability at 2.08 µM: 99.1%
  viability at 8.33 µM: 93.3%
  viability at 16.65 µM: 80.3%
  viability at […]: 104% and 102% and 77.8% and 100%
